Here are results for 28 molecules from ChEMBL document CHEMBL3301361, “Experimental in vitro DMPK and physicochemical data on a set of publicly disclosed compounds”.

Data set [1] can be described thus: physchem.
Data set [2] in a line: physchem. The source holds these as a separate data set.
The nature of data set [3]: in vitro. The settings on record: SD, HW or BN, rat, plasma.
Data set [4] is described as follows: in vitro. The settings on record: mouse, plasma.
Data set [5] can be described thus: in vitro. Particulars: Dunkin Hartley, guinea pig, plasma.
Data set [6] can be described thus: in vitro. The settings on record: human, plasma.
Data set [7] can be described thus: in vitro. Particulars: Beagle, dog, plasma.
Data set [8] in a line: physchem. Particulars: octan-1-ol/water, pH 7.4, LogD7.4.
A short description of data set [9]: physchem. This is another data set of the same source.
Data set [10] can be described thus: in vitro. The settings on record: hepatocytes.
Data set [11] in a line: in vitro. Particulars: human, hepatocytes.
A short description of data set [12]: in vitro. The settings on record: human, liver microsomes. Background: Microsomes from liver hold many membrane-bound enzymes, among them those of drug oxidation.
Data set [13] in a line: physchem. Particulars: pH 7.4 buffer.

Molecules are shown by their SMILES. ≈ marks a conversion by molar mass, not a printed value. Bounds are passed on as bounds.

In general, pKa refers to the negative logarithm of the acid dissociation constant. As for `N=C(N)SCCc1cccc(CCSC(=N)N)c1`, the pKa in [1] worked out at 11; in [2], 9.1.
The term fraction unbound denotes the share of the substance not bound to proteins or other matrix. Lower therefore signals little free substance. Take `NC(=O)[C@@H](CCC(F)(F)F)N(Cc1ccc(-c2ncon2)cc1F)S(=O)(=O)c1ccc(Cl)cc1`: the fraction unbound at 5 h is 0.0119 in data set [3], 0.0149 in data set [4] and 0.0081 in data set [5].
For `C#CCn1c(=O)c2c(-c3cncn3C)n(Cc3ccnc4ccc(Cl)cc34)nc2n(CC2CC2)c1=O`, the pKa in data set [2] worked out at 4.44.
With `COc1ccc(CC(=O)NCc2ccccc2-c2ccccc2C(=O)NCCc2cccnc2)cc1`, the fraction unbound at 5 h in [6] (PPB) was 0.0066; in [3] it was 0.0836; in [7], 0.0705; in data set [4], 0.0872; in [5], 0.17.
Usually logD stands for the decadic logarithm of the distribution of all forms, ionised or not, between an organic phase and buffer at a given pH. Low values mean lower lipophilicity, high ones higher lipophilicity. With `CCS(=O)(=O)c1ccc(-c2cc(C(F)(F)F)ccc2OCC(=O)O)c(C)c1`, in data set [8], the logD is -0.45. For the same molecule, the fraction unbound at 5 h in [6] (PPB) was 0.0428; in data set [3] it was 0.0705; in data set [7] it was 0.03; in [4] it was 0.208; in data set [5] it was 0.0928. The same molecule displayed a pKa in data set [9] of 3.2.
By hepatocyte CLint is commonly meant the capacity of the preparation to metabolise the compound, expressed as a volume cleared per time. A low value points to slow turnover. Take `Cc1ccc(S(=O)(=O)Nc2c(C(=O)N[C@@H](C)C(C)(C)C)c(C)nn2C(C)C)cc1`: the free fraction (fraction unbound) at 5 h in data set [6] (PPB) was 0.0457; in data set [3], 0.0418; in data set [7], 0.0736; in data set [5], 0.271. Besides, the hepatocyte CLint in [10] is 10 µL/min/1e6 cells; in [11], under 3 µL/min/1e6 cells. The molecule further showed a pKa in data set [9] of 4.5.
What is called microsomal CLint is a measure of how fast metabolising enzymes remove a compound, apart from limits set by blood flow. High values mean faster metabolism, low ones greater metabolic stability. With `O=C([C@H]1CCCCN1)N1CCN(c2nc(NCc3ccc(Cl)cc3Cl)c3cccnc3n2)CC1`, the pKa in [1] is 9; in data set [2] it was 5.7. This molecule also gave a logD in data set [8] of 2.27. The intrinsic metabolic clearance (microsomal CLint) in [12] was found to be 24 µL/min/mg. In data set [10], the hepatocyte CLint amounted to 9.88 µL/min/1e6 cells.
Take `c1ccc([C@H]([C@@H](c2ccccc2)N2CCCCC2)N2CCCCC2)cc1`: the fraction unbound at 5 h in data set [6] (PPB) is 0.0606; in data set [3] it was 0.365; in data set [7] it was 0.163; in data set [4], 0.253; in data set [5] it was 0.5. This molecule also had a microsomal CLint in data set [12] of 13.8 µL/min/mg. The same molecule had a hepatocyte CLint in [10] of 12 µL/min/1e6 cells.
For the molecule `c1ccc([C@@H]([C@H](c2ccccc2)N2CCCC2)N2CCCC2)cc1`, the unbound share (fraction unbound) at 5 h in [6] (PPB) was 0.17; in [3], 0.329; in data set [4], 0.339; in [5] it was 0.489.
Taken in the same sequence, the figures for `c1ccc([C@H]([C@@H](c2ccccc2)N2CCCC2)N2CCCC2)cc1` were 0.17, 0.339, 0.271 and 0.489.
`CC#Cc1cncc(-c2ccc3c(c2)C2(N=C(C)C(N)=N2)[C@]2(CC[C@H](OC)CC2)C3)c1` (some centres not stated): the fraction unbound at 5 h in [6] (PPB) is 0.0801; in data set [4], 0.0041; in [5], 0.072.
For orientation: thermodynamic solubility means solubility found after equilibrating the solid with the medium. Regarding `Cc1ccccc1C[C@@H](C(=O)O)N1CCC(CN2CCC(Oc3ccc(Cl)c(Cl)c3)CC2)CC1`, the pKa in data set [1] came out at 9.2; in data set [2], 7.55. The molecule also came in with a solubility (thermodynamic) in [13] of 12.3 µM (≈ 6.22 µg/mL). Moreover, the microsomal CLint in data set [12] is under 3 µL/min/mg.
For `O=C(O)C(c1ccccc1)N1CCC(N2CCC(Oc3ccc(Cl)c(Cl)c3)CC2)CC1` (configuration not stated), the pKa stood at 9.1 in [1] and 6.5 in data set [2]. Moreover, the logD in data set [8] is 2.23. In data set [12], the microsomal CLint was 6 µL/min/mg.
With `O=C(O)[C@@H](Cc1ccccc1)N1CCC(CN2CCC(Oc3ccc(Cl)c(Cl)c3)CC2)CC1`, the values for the pKa in [1] and in [2] were 9.3 and 7, respectively. In data set [6] (PPB), this molecule gave a fraction unbound at 5 h of 0.314. For the same molecule, the microsomal CLint in [12] was under 3 µL/min/mg.
In data set [8], `N#Cc1ccc2ccc(=O)n(CCN3CC[C@@H](NCc4ccc5c(n4)NC(=O)CO5)[C@@H](F)C3)c2c1` had a logD of 0.66. Moreover, the fraction unbound at 5 h was 0.204 in data set [6] (PPB); 0.285 in [3]; 0.591 in data set [7]; 0.465 in data set [4]; 0.715 in [5]. This molecule also came in with a hepatocyte CLint in data set [10] of 16.6 µL/min/1e6 cells.
For `CC1=NC(c2cccc(-c3cncc(Cl)c3)c2)(C2CC2)N=C1N` (configuration not stated), the values for the pKa in [1] and in [2] were 6.04 and 2.28, respectively.
For the molecule `CCCN(c1cccnc1)P(=O)(c1ccccc1)c1ccccc1`, the fraction unbound at 5 h in data set [6] is 0.0205; in data set [3], 0.151; in [7] it was 0.176; in data set [4], 0.124; in data set [5] it was 0.309.
The like results for `O=P(c1ccccc1)(c1ccccc1)N(Cc1ccccn1)c1cccnc1` were, in that order, 0.0234, 0.145, 0.208, 0.17 and 0.299.
On to `O=P(c1ccccc1)(c1ccccc1)N(Cc1ccccn1)Cc1ccccn1`, for which the fraction unbound at 5 h in [6] is 0.0049; in data set [4], 0.0968; in [5] it was 0.569.
In [8], `Cc1nc2ccc(Oc3ccc(F)cc3)cc2c(=O)n1C[C@H]1CCCN(C(C)C)C1` had a logD of 2.4. Besides, the pKa in data set [2] is 2.65.
In the case of `COc1ccc2c(C)cc(N[C@H]3CC[C@H](NCc4cn(C)c5cccnc45)C3)nc2c1`, the figures for the fraction unbound at 5 h in data set [6] (PPB), in data set [4] and in [5] were 0.0262, 0.0647 and 0.0854, respectively.
Turning to `COc1ccnc(CSc2nc3ccccc3[nH]2)c1`, the pKa in [1] came out at 5.3; in [2] it was 3. Also, the logD in data set [8] was 2.89. Also, in data set [12], the microsomal CLint came out at 86 µL/min/mg. Further, in data set [10], the hepatocyte CLint was over 150 µL/min/1e6 cells.
On to `COc1ccc(CCN2CCC(Nc3nc4ccccc4n3Cc3ccc(F)cc3)CC2)cc1` [ASTEMIZOLE], for which the pKa turned out to be 9.62 in [1] and 6.33 in data set [2]. The molecule also yielded a solubility (thermodynamic) in data set [13] of 5.6 µM (≈ 2.57 µg/mL). In data set [6] (PPB), the fraction unbound at 5 h is 0.0262. Besides, the microsomal CLint in data set [12] was 66 µL/min/mg.
For `CN(C)CCC(c1ccc(Cl)cc1)c1ccccn1` (configuration not stated) [CHLORPHENIRAMINE], the pKa in data set [2] turned out to be 5.86.
For the molecule `OC(Cn1cncn1)(Cn1cncn1)c1ccc(F)cc1F` [FLUCONAZOLE], the pKa in data set [1] worked out at 2.72; in data set [2], 2.18. Moreover, the fraction unbound at 5 h in data set [6] is 0.858.
Turning to `C[C@H](CN(C(=O)c1ccc(C#N)cc1)c1ccccn1)N1CCN(c2cccc3c2OCCO3)CC1` [LECOZOTAN], the fraction unbound at 5 h in [6] (PPB) is 0.009; in data set [3], 0.179; in [4] it was 0.139; in data set [5] it was 0.139.
As for `Cc1nnc(C(C)C)n1[C@H]1C[C@H]2CC[C@@H](C1)N2CC[C@H](NC(=O)C1CCC(F)(F)CC1)c1ccccc1` [MARAVIROC], the pKa was 9.66 in data set [1] and 2.4 in [2].
As to `CC(C)N1CCN(Cc2cnc(-c3cc(-c4cccc5[nH]ccc45)cc4[nH]ncc34)o2)CC1` [NEMIRALISIB], the pKa in [1] stood at 8.26; in [2] it was 2.4. The logD in data set [8] stood at 3.49. For the same molecule, the fraction unbound at 5 h is 0.03 in [6] (PPB) and 0.0358 in data set [3].
